Source: patent US20100317078A1, “METHODS TO IMPROVE ALCOHOL TOLERANCE OF MICROORGANISMS” (Cornell Research Foundation Inc, priority 2007, published 2010)
Where “and” joins values, the source holds several entries; their conditions need not be identical. Equal values may be shown once. Read-outs that look alike come from different tables or passages of the source.

Tests used:
[1] = system: S. cerevisiae wild type diploid MVY#2008; conditions: for Specific Death Rates in 2% Glucose (d): WT
Protocol: (§1) The method for examining ethanol tolerance using a plating technique was adapted from Chi et al. (Chi et al., “Role of Phosphatidylinositol (PI) in Ethanol Production and Ethanol Tolerance By a High Ethanol Producing Yeast,” J Industrial Microbiology Biotechnology 22:58-63 (1999), which is hereby incorporated by reference in its entirety). Inocula of wild type and opi1 yeast strains were prepared as previously described. Cells were centrifuged at 4,500 rpm for 5 min at 4° C. (Sorvall Legend R T, Kendro Laboratory Products, Asheville, N.C.), and the supernatant was removed. Cells were washed twice with −I media, centrifuged at 4,500 rpm for 5 min, and the resulting pellet was stored at 4° C.
(§2) The cell pellets were re-suspended in inositol-free media and the OD was measured. Cells were inoculated into a 500-mL polycarbonate Erlenmeyer flask containing 110-mL of synthetic media either containing (+I) or lacking inositol (−I) at a final OD of 0.1. The cell cultures were placed in an incubator-shaker at 30° C. and 250 rpm until the OD reached 0.5.
(§3) Two volumes of cell suspension containing 1×10^8 cells—previously determined by cell counting with a hemacytometer (Bright-Line Hemacytometer, Reichert Scientific Instruments, Buffalo, N.Y.)—were removed from the flasks and placed in separate sterile 50-mL centrifuge tubes. Cells were centrifuged at 4,500 rpm for 5 min at 4° C. and the supernatant was removed. Cells were washed twice with either −I or +I media as previously described, and the resulting supernatants were discarded. Ten mL of ethanol (10, 15 or 18% (v/v)) was added to one of the 50-mL centrifuge tubes containing a washed cell pellet and this represented the “shocked culture.” As a control, 10-mL of sterile water was added to the second 50-mL tube containing a washed cell pellet. Two 25-μl aliquots of the control culture were removed and plated on YPD plates, representing time zero of the experiment. Cell suspensions were transferred from 50-mL centrifuge tubes to 25-mL sterile glass tubes. The glass tubes were placed in an incubator-shaker at 30° C. and 250 rpm.
(§4) Samples of both the shocked and control cultures were taken every hour for 4 hr. Shocked cells were diluted in ethanol (10, 15, or 18%, consistent with the concentration of the shocked culture) at dilution factor of 1:1000. Control cells were diluted in sterile water at the same dilution factor. Duplicate 25-μl aliquots were plated on YPD plates for each sample of either shocked or control cell cultures over the 4 hr time course. All plates were placed in a 30° C. incubator. Colonies were counted on all plates after 48 and 72 hr. Duplicate plate counts were averaged. Ethanol tolerance of each strain, in terms of cell viability, in either +I or −I media over a range of ethanol concentrations, was expressed as a ratio of the number of colonies counted in the shocked culture at 72 hr to the number of colonies counted in the control culture at 72 hr. Cell viability in the control culture at time-zero of the experiment was assumed to be 100%.
(§5) Ethanol tolerance of each strain was calculated, in terms of cell viability (CV), using the number of colony forming units (CFUs) in the shocked and control cultures after 72 hr of incubation using the following equation:
(§6) Cell viability in the control culture at time-zero of the experiment was assumed to be 100%. All ethanol concentrations are volume-volume percentages (v/v), while all glucose concentrations are in weight-volume percentages (w/v).
(§7) To model the data presented in FIGS. 1 and 2 and to estimate specific death rates a simple first-order kinetic model was fitted to the data using the nonlinear parameter estimation tool in KaleidaGraph (Synergy Software, Reading, Pa.):
(§8) d=specific death rate, (hr^−1)

[2] = system: S. cerevisiae mutant derivative MVY#2015 (opi1)
Protocol: as §1, §2, §3, §4, §5, §6, §7, §8

[3] = system: S. cerevisiae mutant derivative MVY#2013 (opi1); conditions: for increase in μ value for opi1 over wild type: 5% ethanol; for Specific Growth Rates in 2% Glucose (μ) / Specific Growth Rates in 12% Glucose (μ): 5% Ethanol
Protocol: (§9) The method for examining ethanol tolerance by profiling yeast growth was adapted from You et al. (You et al., “Ethanol Tolerance in the Yeast Saccharomyces cerevisiae is Dependent on Cellular Oleic Acid Content,” Applied Environ Microbiology 69:1499-1503 (2003), which is hereby incorporated by reference in its entirety). Inocula of wildtype and opi1 yeast strains were prepared as previously described (see Plating Assays) except a Marathon 21K/BR bench top centrifuge (Fisher Scientific, Inc., Hampton, N.H.) was used. The cell pellet was suspended in —I media and the OD was measured by pipetting […] of the cell suspension into a clean well of a 96 well plate and reading OD in a plate reader (Synergy HT Multidetection Microplate Reader, Bio-Tek Instruments, Inc., Winooski, Vt.).
(§10) Cells were inoculated into 125-mL polycarbonate Erlenmeyer flasks with 50-mL of +I or −I containing either 2% or 12% glucose and 0 or 5% ethanol, at a final OD of 0.05. Each media type was performed in triplicate for both yeast strains. Flasks were placed in an incubator-shaker at 30° C. and 250 rpm (Gyratory Waterbath Shaker, New Brunswick Scientific, Edison, N.J.). The OD of each culture was measured over a period of at least 36 hr or until the cell density had stabilized for a period of no less than 12 hr. Triplicate OD measurements were performed for each sample and measurements were averaged.
(§11) Specific growth rate, or the growth rate over time per unit of biomass, was calculated in order to provide a quantitative assessment of the impact of experimental conditions on growth rate. Specific growth rates were estimated for both yeast strains for all of the conditions mentioned using the following first order kinetic equation:
(§12) μ=specific growth rate, (hr^−1)
(§13) This equation was fit to the data presented in FIGS. 3 through 6 using the nonlinear parameter estimation tool in KaleidaGraph.

[4] = system: S. cerevisiae wild type haploid MVY#19; conditions: WT, 5% Ethanol
Protocol: as §9, §10, §11, §12, §13

Question: Which results are given for `CCO` [Ethanol, ethanol]?
Answer: d of wild type cells relative to opi1 cells ([1]; 15% ethanol after growth in +I media): over 3.5 times; d of wild type cells relative to opi1 cells ([1]; 15% ethanol after growth in −I media): nearly four times; Specific Death Rates in 2% Glucose (d) ([1]; grown in I+ media, shocked in 10% Ethanol): 0.084 h⁻¹; Specific Death Rates in 2% Glucose (d) ([1]; grown in I+ media, shocked in 15% Ethanol): 2.61 h⁻¹; Specific Death Rates in 2% Glucose (d) ([1]; grown in I+ media, shocked in 15% Ethanol, listed as ethanol): 2.61 h⁻¹ and 3.14 h⁻¹; Specific Death Rates in 2% Glucose (d) ([1]; grown in I− media, shocked in 10% Ethanol): 0.049 h⁻¹; Specific Death Rates in 2% Glucose (d) ([1]; grown in I− media, shocked in 15% Ethanol): 3.14 h⁻¹; Specific Death Rates in 2% Glucose (d) ([1]; grown in I− media, shocked in 15% Ethanol, listed as ethanol): 3.14 h⁻¹ and 2.61 h⁻¹; specific death rate d ([1]; wild type, 10% ethanol, with or without inositol in growth media): less than 0.1 hr^−1; d after growth in −I media higher than after growth in +I ([1]; wild type, 15% ethanol): 20%; d of opi1 in 18% ethanol, lower than d of wild type in 15% ethanol ([2]; both grown in +I media): 38%; specific death rate d ([2]; opi1, 10% ethanol, with or without inositol in growth media): less than 0.1 hr^−1; increase of d after growth in −I media in comparison to +I media ([2]; opi1, 15% ethanol): 11%; Specific Death Rates in 2% Glucose (d) ([2]; opi1, grown in I+ media, shocked in 10% Ethanol): 0.036 h⁻¹; Specific Death Rates in 2% Glucose (d) ([2]; opi1, grown in I+ media, shocked in 15% Ethanol): 0.71 h⁻¹; Specific Death Rates in 2% Glucose (d) ([2]; opi1, grown in I+ media, shocked in 18% Ethanol): 1.61 h⁻¹; Specific Death Rates in 2% Glucose (d) ([2]; opi1, grown in I− media, shocked in 10% Ethanol): 0.006 h⁻¹; Specific Death Rates in 2% Glucose (d) ([2]; opi1, grown in I− media, shocked in 15% Ethanol): 0.79 h⁻¹; increase in μ value for opi1 over wild type ([3]; +I media, 2% glucose): 5%; increase in μ value for opi1 over wild type ([3]; +I media, 12% glucose): 16%; increase in μ value for opi1 over wild type ([3]; −I media, 2% glucose): 57%; increase in μ value for opi1 over wild type ([3]; −I media, 12% glucose): 33%; Specific Growth Rates in 2% Glucose (μ) ([3]; opi1, I+ media, 2% glucose): 0.118 ± 0.012 h⁻¹; Specific Growth Rates in 12% Glucose (μ) ([3]; opi1, I+ media, 12% glucose): 0.127 ± 0.007 h⁻¹; Specific Growth Rates in 2% Glucose (μ) ([3]; opi1, I− media, 2% glucose): 0.102 ± 0.011 h⁻¹; Specific Growth Rates in 12% Glucose (μ) ([3]; opi1, I− media, 12% glucose): 0.076 ± 0.010 h⁻¹; Specific Growth Rates in 2% Glucose (μ) ([4]; I+ media): 0.111 ± 0.007 h⁻¹; Specific Growth Rates in 12% Glucose (μ) ([4]; I+ media): 0.109 ± 0.010 h⁻¹; Specific Growth Rates in 2% Glucose (μ) ([4]; I− media): 0.065 ± 0.004 h⁻¹; Specific Growth Rates in 12% Glucose (μ) ([4]; I− media): 0.057 ± 0.007 h⁻¹
